Reference: ChEMBL document CHEMBL1201862, “PubChem BioAssay data set” (2004)
Calls of active or inactive are those of the source.

Columns and labels:
[1] = viability loss in CEM21 cells – cell-based, CellTiter-Glo luminescence, cherry-picked, cytotoxicity control for viral fusion inhibitor project, dose response (AID 652042); assay type: functional;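 also: potency for signal decrease meaning cytotoxicity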
[2] = blockers of HIV-1 envelope-mediated cell-cell fusion – cherry-pick, dose response (AID 652057); assay type: functional, cell-based
[3] = target: T1, Probable nicotinate-nucleotide adenylyltransferase (Staphylococcus aureus (strain N315), UniProt P65502); assay type: functional, Staphylococcus aureus subsp. aureus N315;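 as to IC50 Mean: confirmatory dose-response retesting of NadD inhibitor hits first found in an ultra-high-throughput screen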
[4] = target: T1, Probable nicotinate-nucleotide adenylyltransferase; assay type: functional, Staphylococcus aureus subsp. aureus N315; conditions: read-out: IC50_Mean
[5] = target: T2, Carboxy-terminal domain RNA polymerase II polypeptide A small phosphatase 1 (Homo sapiens, UniProt Q9GZU7); assay: CTDSP1 inhibitors, concentration-response, biochemical, absorbance readout, ultra-high-throughput screen actives (AID 540297); assay type: functional
T2 sequence (Q9GZU7 whole entry): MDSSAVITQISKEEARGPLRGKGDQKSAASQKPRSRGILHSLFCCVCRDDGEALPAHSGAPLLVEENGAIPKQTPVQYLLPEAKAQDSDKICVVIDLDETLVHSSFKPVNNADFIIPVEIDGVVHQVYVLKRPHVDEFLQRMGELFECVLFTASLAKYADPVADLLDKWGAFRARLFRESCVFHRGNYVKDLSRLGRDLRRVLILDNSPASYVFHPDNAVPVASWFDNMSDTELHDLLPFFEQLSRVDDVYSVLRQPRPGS

[6] = target: T3, Sentrin-specific protease 1 (Homo sapiens, UniProt Q9P0U3); assay: Dose response confirmation of small molecule inhibitors of the catalytic domain of the SUMO protease, SENP1 in a FRET assay.; assay type: functional; conditions: read-out: IC50_Mean
T3 sequence (Q9P0U3 whole entry): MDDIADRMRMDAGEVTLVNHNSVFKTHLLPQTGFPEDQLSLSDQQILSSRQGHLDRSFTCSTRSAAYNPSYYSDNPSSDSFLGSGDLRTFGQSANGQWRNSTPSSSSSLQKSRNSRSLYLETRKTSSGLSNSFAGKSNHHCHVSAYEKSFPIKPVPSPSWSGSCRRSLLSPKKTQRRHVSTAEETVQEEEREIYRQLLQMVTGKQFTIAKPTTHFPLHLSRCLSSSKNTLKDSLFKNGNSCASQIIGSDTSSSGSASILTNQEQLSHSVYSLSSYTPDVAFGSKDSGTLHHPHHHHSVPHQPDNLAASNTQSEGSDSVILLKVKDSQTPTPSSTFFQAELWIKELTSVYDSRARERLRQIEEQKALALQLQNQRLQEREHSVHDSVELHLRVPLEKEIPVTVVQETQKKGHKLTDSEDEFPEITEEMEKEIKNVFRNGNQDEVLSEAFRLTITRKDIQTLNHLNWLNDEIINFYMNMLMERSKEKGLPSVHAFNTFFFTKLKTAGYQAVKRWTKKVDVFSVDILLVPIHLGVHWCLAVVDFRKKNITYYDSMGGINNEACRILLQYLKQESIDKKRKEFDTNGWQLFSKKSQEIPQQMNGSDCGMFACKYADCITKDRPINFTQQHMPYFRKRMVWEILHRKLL

[7] = target: T3, Sentrin-specific protease 1; assay: SENP1 catalytic domain blockers, concentration series – biochemical, kinetic FRET, dose response (AID 651697); assay type: functional; conditions: read-out: IC50_Mean
[8] = general cell-killing toxicity readout – plate reader, dry powder samples, cytotoxicity control for PAX8 inhibitor project, dose response (AID 743021); assay type: functional, cell-based
[9] = target: Nonstructural protein 1 (Influenza A virus, UniProt Q194T2); assay type: functional, Influenza A virus (A/California/07/2009(H1N1))
[10] = target: T4, Microphthalmia-associated transcription factor (Homo sapiens, UniProt O75030); assay: reducers of TRPM1 reporter luminescence, concentration series – cell-based, SK-MEL-5, cherry-picked, set 3, MITF inhibitor project, dose response (AID 493073); assay type: functional;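 also: SK-MEL-5 melanoma cells with luciferase driven by the MITF target TRPM1 promoter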
T4 sequence (O75030 whole entry): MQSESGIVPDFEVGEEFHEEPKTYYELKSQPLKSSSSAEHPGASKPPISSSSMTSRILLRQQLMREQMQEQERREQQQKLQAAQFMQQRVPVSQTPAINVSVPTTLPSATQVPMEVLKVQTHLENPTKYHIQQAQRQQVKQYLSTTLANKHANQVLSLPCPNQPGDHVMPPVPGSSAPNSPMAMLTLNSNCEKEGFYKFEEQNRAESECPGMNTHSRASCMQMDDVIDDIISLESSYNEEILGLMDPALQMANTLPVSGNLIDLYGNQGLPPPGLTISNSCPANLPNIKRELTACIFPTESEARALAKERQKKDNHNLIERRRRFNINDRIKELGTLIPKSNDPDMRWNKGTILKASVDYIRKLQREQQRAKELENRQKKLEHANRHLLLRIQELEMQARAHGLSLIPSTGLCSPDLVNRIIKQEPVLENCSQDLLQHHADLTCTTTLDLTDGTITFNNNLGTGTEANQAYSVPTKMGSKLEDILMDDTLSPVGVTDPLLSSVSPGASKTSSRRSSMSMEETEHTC

[11] = target: Paired box protein Pax-8 (Homo sapiens, UniProt Q06710); assay: PAX8 transcriptional activity inhibition in RMG-I – RMG-I cells, luciferase, cherry-pick, dose response (AID 687027); assay type: functional, cell-based;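 also: luciferase reporter driven by Pax8 target thyroperoxidase promoter measured by SteadyGlo luminescence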
[12] = target: Glucose-6-phosphate 1-dehydrogenase (Homo sapiens, UniProt P11413); assay: inhibition of Homo sapiens G6PD, dose series – biochemical, fluorescence, selectivity assay for P. falciparum G6PD inhibitor project, dose response (AID 504792); assay type: functional
[13] = target: T5, Hexokinase (Trypanosoma brucei, UniProt Q38C41); assay: Confirmation assay for inhibitors of Trypanosoma brucei hexokinase 1-Analogue-first series. [Related pubchem assays (depositor defined):AID1430, AID1632, AID2516, AID2560, AID2579, AID2600, AID449725, AID492951]; assay type: functional
T5 sequence (Q38C41 whole entry): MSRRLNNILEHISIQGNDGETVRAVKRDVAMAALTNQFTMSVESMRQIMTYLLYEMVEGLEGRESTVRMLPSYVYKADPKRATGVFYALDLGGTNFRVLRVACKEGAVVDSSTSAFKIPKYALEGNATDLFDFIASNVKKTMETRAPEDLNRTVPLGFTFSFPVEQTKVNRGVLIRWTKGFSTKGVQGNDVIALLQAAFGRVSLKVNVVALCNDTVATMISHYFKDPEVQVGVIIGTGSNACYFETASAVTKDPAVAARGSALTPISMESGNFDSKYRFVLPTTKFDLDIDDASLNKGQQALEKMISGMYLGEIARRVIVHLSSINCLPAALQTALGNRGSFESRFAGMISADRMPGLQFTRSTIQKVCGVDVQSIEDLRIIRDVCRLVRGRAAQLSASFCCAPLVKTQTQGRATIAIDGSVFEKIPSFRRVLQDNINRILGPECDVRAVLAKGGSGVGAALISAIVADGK

[14] = target: Beta Lactamase (Pseudomonas aeruginosa, UniProt Q932Y6); assay: BLA reporter interference, concentration series – BLA reporter cells, FRET fluorescence, artefact control for NOD2-RIPK2 interaction inhibitor project, dose response (AID 651552); assay type: functional, cell-based
[15] = target: T6, Rac GTPase-activating protein 1 (Homo sapiens, UniProt Q9H0H5); assay: blockers of MgcRacGAP-driven Rac1 GTP hydrolysis – biochemical, ADP Hunter fluorescence, primary and confirmatory, confirmation (AID 624330); assay type: functional
T6 sequence (Q9H0H5 whole entry): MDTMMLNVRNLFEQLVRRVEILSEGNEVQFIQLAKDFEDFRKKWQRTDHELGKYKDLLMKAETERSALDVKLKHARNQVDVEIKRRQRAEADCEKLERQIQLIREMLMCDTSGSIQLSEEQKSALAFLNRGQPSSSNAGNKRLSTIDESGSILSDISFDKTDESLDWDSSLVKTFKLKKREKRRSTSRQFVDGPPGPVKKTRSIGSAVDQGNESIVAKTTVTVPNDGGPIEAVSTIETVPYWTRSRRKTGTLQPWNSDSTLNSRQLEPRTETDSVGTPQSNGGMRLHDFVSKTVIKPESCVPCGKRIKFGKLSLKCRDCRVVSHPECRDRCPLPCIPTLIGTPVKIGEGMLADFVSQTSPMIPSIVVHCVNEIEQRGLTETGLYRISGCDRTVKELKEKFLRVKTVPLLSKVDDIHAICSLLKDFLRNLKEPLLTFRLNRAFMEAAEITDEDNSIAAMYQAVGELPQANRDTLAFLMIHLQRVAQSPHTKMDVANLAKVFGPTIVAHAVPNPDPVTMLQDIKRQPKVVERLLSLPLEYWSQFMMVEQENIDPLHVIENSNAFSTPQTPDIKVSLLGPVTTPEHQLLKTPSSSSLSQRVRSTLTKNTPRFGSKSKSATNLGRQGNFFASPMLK

[16] = Fluorescence-based cell-based high throughput dose response assay for inhibitors of the interaction of nucleotide-binding oligomerization domain containing 2 (NOD2) and the receptor-interacting serine-threonine kinase 2 (RIPK2).; assay type: functional; conditions: Homo sapiens
[17] = target: Mitochondrial peptide methionine sulfoxide reductase (Bos taurus, UniProt P54149); assay: Absorbance-based biochemical high throughput dose response assay for activators of Methionine sulfoxide reductase A (MsrA).; assay type: functional
[18] = target: T7, Protein RecA (Mycobacterium tuberculosis, UniProt P9WHJ3); assay: Fluorescence Cell-Free Homogeneous Dose Retest to Identify Inhibitors of RecA-Intein Splicing Activity. [Related pubchem assays (depositor defined):AID2097, AID2223, AID489010, AID492950]; assay type: functional
T7 sequence (P9WHJ3 whole entry): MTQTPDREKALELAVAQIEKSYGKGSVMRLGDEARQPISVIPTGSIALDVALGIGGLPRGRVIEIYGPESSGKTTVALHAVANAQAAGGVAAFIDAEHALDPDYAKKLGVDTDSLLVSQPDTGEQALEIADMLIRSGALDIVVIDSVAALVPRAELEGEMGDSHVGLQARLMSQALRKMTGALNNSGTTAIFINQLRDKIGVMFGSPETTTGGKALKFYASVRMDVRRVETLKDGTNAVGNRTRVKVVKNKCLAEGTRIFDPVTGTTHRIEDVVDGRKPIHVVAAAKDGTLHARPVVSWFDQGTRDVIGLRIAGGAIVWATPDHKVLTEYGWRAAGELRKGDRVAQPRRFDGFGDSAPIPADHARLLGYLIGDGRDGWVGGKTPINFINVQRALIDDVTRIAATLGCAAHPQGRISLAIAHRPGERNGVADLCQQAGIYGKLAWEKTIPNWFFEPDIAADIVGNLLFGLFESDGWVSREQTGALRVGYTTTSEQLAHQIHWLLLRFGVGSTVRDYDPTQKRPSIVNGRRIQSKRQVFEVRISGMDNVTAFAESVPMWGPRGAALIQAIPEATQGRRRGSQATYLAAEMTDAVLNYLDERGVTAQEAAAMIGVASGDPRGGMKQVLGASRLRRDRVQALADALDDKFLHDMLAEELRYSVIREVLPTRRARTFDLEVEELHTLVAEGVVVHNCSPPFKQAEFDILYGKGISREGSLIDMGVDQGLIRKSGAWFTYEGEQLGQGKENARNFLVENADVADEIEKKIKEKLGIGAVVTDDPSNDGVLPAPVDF

[19] = target: T8, Replicative DNA helicase DnaB (Mycobacterium tuberculosis, UniProt P9WMR3); assay: DnaB intein splicing inhibitors, dose response, biochemical, cell-free fluorescence (AID 449749); assay type: functional
T8 sequence (P9WMR3 whole entry): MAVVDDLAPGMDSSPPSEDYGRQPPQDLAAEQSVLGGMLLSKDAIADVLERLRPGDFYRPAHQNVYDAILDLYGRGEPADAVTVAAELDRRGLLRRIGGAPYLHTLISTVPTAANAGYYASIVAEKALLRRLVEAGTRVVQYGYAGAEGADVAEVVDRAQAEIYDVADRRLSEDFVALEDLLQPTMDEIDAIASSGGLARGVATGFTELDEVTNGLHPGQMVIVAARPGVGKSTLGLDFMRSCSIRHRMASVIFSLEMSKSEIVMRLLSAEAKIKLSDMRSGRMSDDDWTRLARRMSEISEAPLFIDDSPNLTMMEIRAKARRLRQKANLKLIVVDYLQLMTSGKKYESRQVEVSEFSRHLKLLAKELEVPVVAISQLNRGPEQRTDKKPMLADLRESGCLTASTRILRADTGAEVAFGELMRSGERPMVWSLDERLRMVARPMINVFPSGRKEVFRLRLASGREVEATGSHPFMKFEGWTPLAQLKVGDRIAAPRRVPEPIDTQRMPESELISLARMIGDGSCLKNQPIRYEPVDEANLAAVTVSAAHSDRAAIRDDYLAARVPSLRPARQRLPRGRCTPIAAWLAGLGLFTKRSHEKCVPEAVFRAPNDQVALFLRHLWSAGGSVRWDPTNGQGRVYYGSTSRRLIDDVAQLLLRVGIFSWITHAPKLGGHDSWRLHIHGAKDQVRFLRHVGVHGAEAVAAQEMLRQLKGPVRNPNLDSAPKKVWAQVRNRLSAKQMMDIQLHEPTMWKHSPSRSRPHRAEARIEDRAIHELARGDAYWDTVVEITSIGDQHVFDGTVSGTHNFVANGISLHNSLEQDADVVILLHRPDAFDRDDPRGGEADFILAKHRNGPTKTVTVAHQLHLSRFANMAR

T1 sequence (P65502 whole entry): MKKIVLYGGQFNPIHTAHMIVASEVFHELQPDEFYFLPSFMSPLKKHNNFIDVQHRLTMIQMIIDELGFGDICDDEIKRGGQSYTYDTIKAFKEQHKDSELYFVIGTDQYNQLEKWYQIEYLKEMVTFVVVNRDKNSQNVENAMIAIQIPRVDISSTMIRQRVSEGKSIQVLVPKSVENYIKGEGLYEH
Mitochondrial peptide methionine sulfoxide reductase, sequence (P54149 whole entry): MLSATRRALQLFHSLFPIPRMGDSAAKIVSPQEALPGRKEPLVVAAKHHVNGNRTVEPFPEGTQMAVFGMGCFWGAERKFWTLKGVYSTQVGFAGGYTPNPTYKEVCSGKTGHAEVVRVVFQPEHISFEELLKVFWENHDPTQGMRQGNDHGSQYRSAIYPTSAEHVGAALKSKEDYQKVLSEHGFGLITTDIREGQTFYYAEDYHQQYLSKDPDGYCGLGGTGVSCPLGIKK
Glucose-6-phosphate 1-dehydrogenase, sequence (P11413 whole entry): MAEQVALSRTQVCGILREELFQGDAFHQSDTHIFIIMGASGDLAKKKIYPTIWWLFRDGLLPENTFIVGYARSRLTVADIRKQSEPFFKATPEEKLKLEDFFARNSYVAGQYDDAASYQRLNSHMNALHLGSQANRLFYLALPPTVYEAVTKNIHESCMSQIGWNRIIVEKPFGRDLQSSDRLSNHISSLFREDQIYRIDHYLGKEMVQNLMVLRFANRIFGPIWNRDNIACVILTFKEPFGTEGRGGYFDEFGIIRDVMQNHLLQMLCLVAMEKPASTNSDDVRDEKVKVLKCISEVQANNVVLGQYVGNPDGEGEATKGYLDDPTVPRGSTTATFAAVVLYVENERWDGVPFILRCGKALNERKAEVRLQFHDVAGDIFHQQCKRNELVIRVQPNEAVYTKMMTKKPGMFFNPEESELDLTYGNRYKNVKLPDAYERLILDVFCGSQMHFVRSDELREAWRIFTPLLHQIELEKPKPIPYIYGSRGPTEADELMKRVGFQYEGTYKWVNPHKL
Beta Lactamase, sequence (Q932Y6 whole entry): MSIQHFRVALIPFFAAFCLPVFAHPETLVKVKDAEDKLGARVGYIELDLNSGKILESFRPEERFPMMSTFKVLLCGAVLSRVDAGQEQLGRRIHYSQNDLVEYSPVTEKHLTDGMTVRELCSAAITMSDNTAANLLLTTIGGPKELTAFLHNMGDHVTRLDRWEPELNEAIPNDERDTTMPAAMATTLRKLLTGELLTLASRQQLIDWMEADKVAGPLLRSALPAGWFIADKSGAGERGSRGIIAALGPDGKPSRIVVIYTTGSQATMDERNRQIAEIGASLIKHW
Nonstructural protein 1, sequence (Q194T2 whole entry): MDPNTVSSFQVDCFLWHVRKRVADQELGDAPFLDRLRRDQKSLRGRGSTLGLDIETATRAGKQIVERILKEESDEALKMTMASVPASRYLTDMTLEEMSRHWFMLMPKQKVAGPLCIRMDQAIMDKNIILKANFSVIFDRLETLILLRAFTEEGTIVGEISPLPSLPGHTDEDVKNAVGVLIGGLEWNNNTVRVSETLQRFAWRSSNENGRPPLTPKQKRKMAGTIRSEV
Paired box protein Pax-8, sequence (Q06710 whole entry): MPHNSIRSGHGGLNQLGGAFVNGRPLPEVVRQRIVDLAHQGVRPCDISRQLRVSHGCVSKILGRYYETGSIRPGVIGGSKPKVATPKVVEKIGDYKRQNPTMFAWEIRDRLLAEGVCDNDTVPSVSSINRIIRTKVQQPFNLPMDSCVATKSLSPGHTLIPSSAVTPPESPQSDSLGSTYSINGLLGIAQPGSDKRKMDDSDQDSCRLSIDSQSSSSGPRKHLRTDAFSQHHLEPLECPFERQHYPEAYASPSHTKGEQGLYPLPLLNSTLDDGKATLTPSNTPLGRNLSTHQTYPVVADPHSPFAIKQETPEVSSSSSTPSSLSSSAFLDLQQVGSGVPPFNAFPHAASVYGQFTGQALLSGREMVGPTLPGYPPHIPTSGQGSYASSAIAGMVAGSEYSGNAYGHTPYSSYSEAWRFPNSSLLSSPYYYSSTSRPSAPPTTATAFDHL

C[C@@H]1CN([C@@H](C)CO)C(=O)c2cccc(NC(=O)c3cnccn3)c2O[C@H]1CN(C)Cc1ccc(Cl)c(Cl)c1
AC50 [1]: 49.9 µM (active) | AC50 [2]: 53.4 µM (active)

COc1cccc(N2[C@@H](CC(=O)O)c3cc(C(F)(F)F)ccc3S2(=O)=O)c1
IC50 [3]: 17.4 µM (active) | IC50 [4]: 31.7 µM (active) | IC50 [5]: 5.53 µM (active)

COC(=O)C1=CC(C(=O)c2cccs2)=NN(c2ccc(OC)cc2)C1C(=O)OC (stereo not drawn)
IC50 [6]: 34.5 µM (inactive) | IC50 [7]: 27.9 µM (inactive)

CCS(=O)(=O)c1ccc(N=Nc2ccc(O)c3ncccc23)c(OC)c1
AC50 [8]: 50.2 µM (active) | IC50 [9]: 9.78 µM (active) | AC50 [10]: 9.23 µM (active) | AC50 [11]: 1.19 µM (active)

COc1ccc(O)c(/C=N/n2c(-c3ccco3)cs/c2=N\c2cccnc2)c1
IC50 [6]: 23.1 µM (inactive) | IC50 [7]: 49.7 µM (inactive)

O=c1c2ccc(F)cc2sn1-c1ccccc1
IC50 [12]: 11.8 µM (active) | IC50 [13]: 2.31 µM (active) | IC50 [14]: 23.4 µM (inactive) | IC50 [15]: 36.4 µM (active) | IC50 [16]: 5.43 µM (active) | EC50 [17]: > 104 µM (inactive)

CCn1c(SCC(=O)Nc2nc(-c3ccc(C)cc3)cs2)nnc1-c1ccccc1O
EC50 [18]: 174 µM (active) | IC50 [3]: 17.9 µM (active) | AC50 [19]: 3.46 µM (active) | IC50 [4]: 41.6 µM (active)
